Where a SMILES comes first, the peptide text is derived from it. Bridges are numbered along the chain shown (N, C = ends). [ ]: non-standard residue; d: D form. The star is where a group is joined. d(aIle) = CC[C@H](C)[C@@H](N)C(=O)O; d(aThr) = C[C@@H](O)[C@@H](N)C(=O)O; Hexanoyl(5-Me) = CC(C)CCCC(=O)*; Orn = NCCC[C@H](N)C(=O)O; Dhb = C/C=C(\N)C(=O)O
Experiments:
Format in all cases: cell-based, human
A-549 = experiment: SRB colorimetric assay of cell growth and viability, A-549; details: A-549, 48 hours exposure; for GI50: read-out: GI50 A-549; for CC50: read-out: LC50 A-549
HeLa = experiment: SRB colorimetric assay of cell growth and viability, HeLa; details: HELA, 48 hours exposure; for CC50: read-out: LC50 HELA
PANC-1 = experiment: SRB colorimetric assay of cell growth and viability, PANC-1; details: PANC-1, 48 hours exposure; for CC50: read-out: LC50 PANC-1
HeLa-APL = experiment: SRB colorimetric assay of cell growth and viability, HeLa-APL; details: HELA-APL, 48 hours exposure; for CC50: read-out: LC50 HELA-APL
IGROV-1 = experiment: SRB colorimetric assay of cell growth and viability, IGROV-1; details: IGROV; 48 hours exposure
HT-29 = experiment: SRB colorimetric assay of cell growth and viability, HT-29; details: HT-29, 48 hours exposure; for GI50: read-out: GI50 HT-29; for CC50: read-out: LC50 HT-29
SK-BR-3 = experiment: SRB colorimetric assay of cell growth and viability, SK-BR-3; details: SK-BR-3; 48 hours exposure
LoVo-Dox = experiment: SRB colorimetric assay of cell growth and viability, LoVo-Dox; details: LOVO-DOX, 48 hours exposure; for CC50: read-out: LC50 LOVO-DOX
How it was run: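 Cells in RPMI 1640 with 10% FBS were seeded at 5×10^3 per well and left 18 hours drug-free before compounds (10 to 10^−8 μg/mL in DMSO:EtOH:PBS 0.5:0.5:99) were added for 48 hours. TCA-fixed cells were stained with SRB and read at 490 nm; triplicate wells gave GI, TGI and LC.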

SK-MEL-28 = experiment: SRB colorimetric assay of cell growth and viability, SK-MEL-28; details: MEL-28, 48 hours exposure; for CC50: read-out: LC50 MEL-28
IGROV-ET = experiment: SRB colorimetric assay of cell growth and viability, IGROV-ET; details: IGROV-ET, 48 hours exposure; for CC50: read-out: LC50 IGROV-ET
LNCaP = experiment: SRB colorimetric assay of cell growth and viability, LNCaP; details: LN-caP, 48 hours exposure; for CC50: read-out: LC50 LN-caP
DU-145 = experiment: SRB colorimetric assay of cell growth and viability, DU-145; details: DU-145; 48 hours exposure
K-562 = experiment: SRB colorimetric assay of cell growth and viability, K-562; details: K-562, 48 hours exposure; for CC50: read-out: LC50 K-562

C/C=C1\NC(=O)[C@H](Cc2ccccc2)NC(=O)[C@@H](C(C)C)NC(=O)[C@@H]([C@@H](C)CC)NC(=O)[C@H](NC(=O)[C@H](NC(=O)[C@H](CCCN)NC(=O)[C@H]2CCCN2C(=O)[C@H](NC(=O)[C@@H](NC(=O)[C@H](CC(C)C)NC(=O)[C@H](NC(=O)CCCC(C)C)C(C)C)C(C)C)C(C)C)[C@@H](C)CC)[C@@H](C)OC(=O)[C@H](C(C)C)NC1=O [Compound 113, [Leu^12]-KF] ({Hexanoyl(5-Me)}-[dV]LV[dV][dP][Orn][d(aIle)][d(aThr)][d(aIle)][dV]F[Dhb]V; ester 8-C)
TGI A-549 (A-549): 2.95E−06 Molar
GI50 (A-549): 1.44 µM
CC50 (A-549): 6.04 µM
GI50 (HeLa): 0.191 µM
TGI HELA (HeLa): 4.95E−07 Molar
CC50 (HeLa): 5.79 µM
GI50 (PANC-1): 1.82 µM
TGI PANC-1 (PANC-1): 4.89E−06 Molar
CC50 (PANC-1): 6.71 µM
GI50 (HeLa-APL): 1.19 µM
TGI HELA-APL (HeLa-APL): 2.59E−06 Molar
CC50 (HeLa-APL): 5.66 µM
GI50 (IGROV-1): 0.415 µM
LC50 (concentration causing 50% net cell killing) (IGROV-1): 6.71 µM
TGI IGROV (IGROV-1): 1.70E−06 Molar
TGI HT-29 (HT-29): 1.76E−06 Molar
GI50 (HT-29): 0.691 µM
CC50 (HT-29): 4.5 µM
GI50 (SK-BR-3): 0.292 µM
LC50 (SK-BR-3): 6.71 µM
TGI SK-BR-3 (SK-BR-3): 6.13E−07 Molar
GI50 (LoVo-Dox): 0.226 µM
TGI LOVO-DOX (LoVo-Dox): 6.11E−07 Molar
CC50 (LoVo-Dox): 6.71 µM
GI50 (SK-MEL-28): 1.42 µM
TGI MEL-28 (SK-MEL-28): 2.77E−06 Molar
CC50 (SK-MEL-28): 5.37 µM
GI50 (IGROV-ET): 0.926 µM
TGI IGROV-ET (IGROV-ET): 2.48E−06 Molar
CC50 (IGROV-ET): 6.62 µM
GI50 (LNCaP): 0.906 µM
TGI LN-caP (LNCaP): 2.20E−06 Molar
CC50 (LNCaP): 5.32 µM
GI50 (DU-145): 0.906 µM
LC50 (concentration causing 50% net cell kill) (DU-145): 5.09 µM
TGI DU-145 (DU-145): 2.14E−06 Molar
GI50 (K-562): 1.84 µM
TGI K-562 (K-562): 3.24E−06 Molar
CC50 (K-562): 5.72 µM

C/C=C1\NC(=O)[C@H](Cc2ccccc2)NC(=O)[C@@H](C(C)C)NC(=O)[C@@H]([C@@H](C)CC)NC(=O)[C@H](NC(=O)[C@H](NC(=O)[C@H](CCCN)NC(=O)[C@H]2CCCN2C(=O)[C@H](NC(=O)[C@@H](NC(=O)[C@H](Cc2ccccc2)NC(=O)[C@H](NC(=O)CCCC(C)C)C(C)C)C(C)C)C(C)C)[C@@H](C)CC)[C@@H](C)OC(=O)[C@H](C(C)C)NC1=O [Compound 114, [Phe^12]-KF] ({Hexanoyl(5-Me)}-[dV]FV[dV][dP][Orn][d(aIle)][d(aThr)][d(aIle)][dV]F[Dhb]V; ester 8-C)
TGI A-549 (A-549): 3.50E−07 Molar
GI50 (A-549): 0.157 µM
CC50 (A-549): 1.52 µM
GI50 (HeLa): 0.259 µM
TGI HELA (HeLa): 9.25E−07 Molar
CC50 (HeLa): 5.69 µM
GI50 (PANC-1): 0.233 µM
TGI PANC-1 (PANC-1): 1.16E−06 Molar
CC50 (PANC-1): 6.56 µM
GI50 (HeLa-APL): 0.143 µM
TGI HELA-APL (HeLa-APL): 3.49E−07 Molar
CC50 (HeLa-APL): 2.03 µM
GI50 (IGROV-1): 0.114 µM
LC50 (concentration causing 50% net cell killing) (IGROV-1): 6.56 µM
TGI IGROV (IGROV-1): 3.10E−07 Molar
TGI HT-29 (HT-29): 3.22E−07 Molar
GI50 (HT-29): 0.157 µM
CC50 (HT-29): 0.696 µM
GI50 (SK-BR-3): 0.207 µM
LC50 (SK-BR-3): 6.56 µM
TGI SK-BR-3 (SK-BR-3): 4.62E−07 Molar
GI50 (LoVo-Dox): 0.18 µM
TGI LOVO-DOX (LoVo-Dox): 3.94E−07 Molar
CC50 (LoVo-Dox): 4.27 µM
GI50 (SK-MEL-28): 0.17 µM
TGI MEL-28 (SK-MEL-28): 3.36E−07 Molar
CC50 (SK-MEL-28): 0.748 µM
GI50 (IGROV-ET): 0.301 µM
TGI IGROV-ET (IGROV-ET): 8.40E−07 Molar
CC50 (IGROV-ET): 6.38 µM
GI50 (LNCaP): 0.053 µM
TGI LN-caP (LNCaP): 3.00E−07 Molar
CC50 (LNCaP): 4.7 µM
GI50 (DU-145): 0.18 µM
LC50 (concentration causing 50% net cell kill) (DU-145): 1.73 µM
TGI DU-145 (DU-145): 3.75E−07 Molar
GI50 (K-562): 0.0787 µM
TGI K-562 (K-562): 3.71E−07 Molar
CC50 (K-562): 4.03 µM

C/C=C1\NC(=O)[C@H](Cc2ccccc2)NC(=O)[C@@H](C(C)C)NC(=O)[C@@H]([C@@H](C)CC)NC(=O)[C@H](NC(=O)[C@H](NC(=O)[C@H](CCCN)NC(=O)[C@H]2CCCN2C(=O)[C@H](NC(=O)[C@@H](NC(=O)[C@H](CCC(=O)O)NC(=O)[C@H](NC(=O)CCCC(C)C)C(C)C)C(C)C)C(C)C)[C@@H](C)CC)[C@@H](C)OC(=O)[C@H](C(C)C)NC1=O [Compound 115, [Glu^12]-KF] ({Hexanoyl(5-Me)}-[dV]EV[dV][dP][Orn][d(aIle)][d(aThr)][d(aIle)][dV]F[Dhb]V; ester 8-C)
TGI A-549 (A-549): 6.64E−06 Molar
GI50 (A-549): 4.1 µM
CC50 (A-549): 6.64 µM
GI50 (HeLa): 6.64 µM
TGI HELA (HeLa): 6.64E−06 Molar
CC50 (HeLa): 6.64 µM
GI50 (PANC-1): 6.64 µM
TGI PANC-1 (PANC-1): 6.64E−06 Molar
CC50 (PANC-1): 6.64 µM
GI50 (HeLa-APL): 2.99 µM
TGI HELA-APL (HeLa-APL): 6.64E−06 Molar
CC50 (HeLa-APL): 6.64 µM
GI50 (IGROV-1): 1.54 µM
LC50 (concentration causing 50% net cell killing) (IGROV-1): 6.64 µM
TGI IGROV (IGROV-1): 3.59E−06 Molar
TGI HT-29 (HT-29): 2.60E−06 Molar
GI50 (HT-29): 1.33 µM
CC50 (HT-29): 5.09 µM
GI50 (SK-BR-3): 1.35 µM
LC50 (SK-BR-3): 6.64 µM
TGI SK-BR-3 (SK-BR-3): 3.01E−06 Molar
GI50 (LoVo-Dox): 1.52 µM
TGI LOVO-DOX (LoVo-Dox): 3.00E−06 Molar
CC50 (LoVo-Dox): 5.92 µM
GI50 (SK-MEL-28): 6.5 µM
TGI MEL-28 (SK-MEL-28): 6.64E−06 Molar
CC50 (SK-MEL-28): 6.64 µM
GI50 (IGROV-ET): 1.67 µM
TGI IGROV-ET (IGROV-ET): 3.12E−06 Molar
CC50 (IGROV-ET): 5.83 µM
GI50 (LNCaP): 1.28 µM
TGI LN-caP (LNCaP): 2.54E−06 Molar
CC50 (LNCaP): 5.01 µM
GI50 (DU-145): 3.25 µM
LC50 (concentration causing 50% net cell kill) (DU-145): 6.64 µM
TGI DU-145 (DU-145): 6.64E−06 Molar
GI50 (K-562): 6.64 µM
TGI K-562 (K-562): 6.64E−06 Molar
CC50 (K-562): 6.64 µM

C/C=C1\NC(=O)[C@H](Cc2ccccc2)NC(=O)[C@@H](C(C)C)NC(=O)[C@@H]([C@@H](C)CC)NC(=O)[C@H](NC(=O)[C@H](NC(=O)[C@H](CCCN)NC(=O)[C@H]2CCCN2C(=O)[C@H](NC(=O)[C@@H](NC(=O)[C@H](CCCN)NC(=O)[C@H](NC(=O)CCCC(C)C)C(C)C)C(C)C)C(C)C)[C@@H](C)CC)[C@@H](C)OC(=O)[C@H](C(C)C)NC1=O [Compound 116, [Orn^12]-KF] ({Hexanoyl(5-Me)}-[dV][Orn]V[dV][dP][Orn][d(aIle)][d(aThr)][d(aIle)][dV]F[Dhb]V; ester 8-C)
TGI A-549 (A-549): 6.71E−06 Molar
GI50 (A-549): 6.71 µM
CC50 (A-549): 6.71 µM
GI50 (HeLa): 1.54 µM
TGI HELA (HeLa): 3.35E−06 Molar
CC50 (HeLa): 6.71 µM
GI50 (PANC-1): 6.08 µM
TGI PANC-1 (PANC-1): 6.71E−06 Molar
CC50 (PANC-1): 6.71 µM
GI50 (HeLa-APL): 3 µM
TGI HELA-APL (HeLa-APL): 6.71E−06 Molar
CC50 (HeLa-APL): 6.71 µM
GI50 (IGROV-1): 2.05 µM
LC50 (concentration causing 50% net cell killing) (IGROV-1): 6.71 µM
TGI IGROV (IGROV-1): 3.86E−06 Molar
TGI HT-29 (HT-29): 3.88E−06 Molar
GI50 (HT-29): 2.24 µM
CC50 (HT-29): 6.71 µM
GI50 (SK-BR-3): 1.45 µM
LC50 (SK-BR-3): 5.51 µM
TGI SK-BR-3 (SK-BR-3): 2.82E−06 Molar
GI50 (LoVo-Dox): 1.94 µM
TGI LOVO-DOX (LoVo-Dox): 3.71E−06 Molar
CC50 (LoVo-Dox): 6.71 µM
GI50 (SK-MEL-28): 4.32 µM
TGI MEL-28 (SK-MEL-28): 6.71E−06 Molar
CC50 (SK-MEL-28): 6.71 µM
GI50 (IGROV-ET): 1.87 µM
TGI IGROV-ET (IGROV-ET): 3.23E−06 Molar
CC50 (IGROV-ET): 5.55 µM
GI50 (LNCaP): 1.54 µM
TGI LN-caP (LNCaP): 3.10E−06 Molar
CC50 (LNCaP): 6.24 µM
GI50 (DU-145): 3.32 µM
LC50 (concentration causing 50% net cell kill) (DU-145): 6.71 µM
TGI DU-145 (DU-145): 6.71E−06 Molar
GI50 (K-562): 0.919 µM
TGI K-562 (K-562): 2.34E−06 Molar
CC50 (K-562): 5.94 µM
